From ChEMBL document CHEMBL1201861, “Genomics of Drug Sensitity in Cancer screening data, Wellcome Trust Sanger Institute”

Tests used:
Experiment in all cases: cells
DSH1 = type: functional, cell-based; conditions: Homo sapiens;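 note: growth inhibition of human DSH1 cells, measured with a cell viability readout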
Description: SANGER: Inhibition of human DSH1 cell growth in a cell viability assay.

ES1 = type: functional, cell-based, Homo sapiens; conditions: Homo sapiens, ES1
Description: SANGER: Inhibition of human ES1 cell growth in a cell viability assay.

ES3 = type: functional, cell-based, Homo sapiens; conditions: Homo sapiens, ES3;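 note: growth inhibition of ES3 cells, read out with a cell viability assay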
Description: SANGER: Inhibition of human ES3 cell growth in a cell viability assay.

EW-18 = type: functional, cell-based, Homo sapiens; conditions: Homo sapiens, EW-18; read-out: IC50;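 note: growth inhibition of EW-18 cells, read out by a cell viability assay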
Description: SANGER: Inhibition of human EW-18 cell growth in a cell viability assay.

EOL1 = type: functional, cell-based, Homo sapiens; conditions: Homo sapiens, EOL1;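 note: growth inhibition of EoL-1 cells, read out by a cell viability assay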
Description: SANGER: Inhibition of human EoL-1-cell cell growth in a cell viability assay.

GI-1 = type: functional, cell-based, Homo sapiens; conditions: Homo sapiens, GI-1;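 note: growth inhibition of human GI-1 cells, measured with a cell viability readout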
Description: SANGER: Inhibition of human GI-1 cell growth in a cell viability assay.

HAL-01 = type: functional, cell-based, Homo sapiens; conditions: Homo sapiens, HAL-01;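 note: growth inhibition of human HAL-01 cells, read out with a cell viability assay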
Description: SANGER: Inhibition of human HAL-01 cell growth in a cell viability assay.

IA-LM = type: functional, cell-based; conditions: Homo sapiens;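 note: cell viability assay measuring growth inhibition of human IA-LM cells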
Description: SANGER: Inhibition of human IA-LM cell growth in a cell viability assay.

IST-MES1 = type: functional, cell-based, Homo sapiens; conditions: Homo sapiens, IST-MES1;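 note: growth inhibition of IST-MES1 cells, measured with a cell viability assay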
Description: SANGER: Inhibition of human IST-MES1 cell growth in a cell viability assay.

JAR = type: functional, cell-based, Homo sapiens; conditions: Homo sapiens, JAR;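 note: growth inhibition of human JAR cells determined with a cell viability assay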
Description: SANGER: Inhibition of human JAR cell growth in a cell viability assay.

KE-37 = type: functional, cell-based, Homo sapiens; conditions: Homo sapiens, KE-37;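 note: growth inhibition of KE-37 cells, read out with a cell viability assay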
Description: SANGER: Inhibition of human KE-37 cell growth in a cell viability assay.

KG-1 = type: functional, cell-based, Homo sapiens; conditions: Homo sapiens, KG-1;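 note: growth inhibition of KG-1 cells, read out by a cell viability assay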
Description: SANGER: Inhibition of human KG-1 cell growth in a cell viability assay.

KLE = type: functional, cell-based; conditions: Homo sapiens;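 note: growth inhibition of human KLE cells, read out with a cell viability assay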
Description: SANGER: Inhibition of human KLE cell growth in a cell viability assay.

KM12 = type: functional, cell-based, Homo sapiens; conditions: Homo sapiens, KM12;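 note: KM12 cell growth inhibition, read out with a cell viability assay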
Description: SANGER: Inhibition of human KM12 cell growth in a cell viability assay.

L-363 = type: functional, cell-based, Homo sapiens; conditions: Homo sapiens, L-363
Description: SANGER: Inhibition of human L-363 cell growth in a cell viability assay.

LAMA-84 = type: functional, cell-based, Homo sapiens; conditions: Homo sapiens, LAMA-84;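 note: growth inhibition of LAMA-84 cells, read out with a cell viability assay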
Description: SANGER: Inhibition of human LAMA-84 cell growth in a cell viability assay.

LOX IMVI = type: functional, cell-based, Homo sapiens; conditions: Homo sapiens, LOX IMVI
Description: SANGER: Inhibition of human LOXIMVI cell growth in a cell viability assay.

LS-513 = type: functional, cell-based, Homo sapiens; conditions: Homo sapiens, LS-513
Description: SANGER: Inhibition of human LS-513 cell growth in a cell viability assay.

Lu-65 = type: functional, cell-based, Homo sapiens; conditions: Homo sapiens, Lu-65;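 note: growth inhibition of Lu-65 cancer cells, read out by a cell viability assay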
Description: SANGER: Inhibition of human LU-65 cell growth in a cell viability assay.

MFM-223 = type: functional, cell-based, Homo sapiens; conditions: Homo sapiens, MFM-223
Description: SANGER: Inhibition of human MFM-223 cell growth in a cell viability assay.

MLMA = type: functional, cell-based, Homo sapiens; conditions: Homo sapiens, MLMA;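 note: growth inhibition of MLMA cells (human), determined through a cell viability readout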
Description: SANGER: Inhibition of human MLMA cell growth in a cell viability assay.

MOLT-4 = type: functional, cell-based, Homo sapiens; conditions: Homo sapiens, MOLT-4;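 note: growth inhibition of MOLT-4 cells, determined with a cell viability readout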
Description: SANGER: Inhibition of human MOLT-4 cell growth in a cell viability assay.

MPP-89 = type: functional, cell-based, Homo sapiens; conditions: Homo sapiens, MPP-89;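 note: growth inhibition of human MPP-89 cells, read out with a cell viability assay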
Description: SANGER: Inhibition of human MPP-89 cell growth in a cell viability assay.

MZ7-mel = type: functional, cell-based, Homo sapiens; conditions: Homo sapiens, MZ7-mel;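 note: growth inhibition of human MZ7-mel cells, measured by a cell viability assay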
Description: SANGER: Inhibition of human MZ7-mel cell growth in a cell viability assay.

NB13 = type: functional, cell-based, Homo sapiens; conditions: Homo sapiens, NB13;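 note: cell viability readout measuring growth inhibition of human NB13 cells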
Description: SANGER: Inhibition of human NB13 cell growth in a cell viability assay.

NCI-H1838 = type: functional, cell-based, Homo sapiens; conditions: Homo sapiens, NCI-H1838;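 note: growth inhibition of NCI-H1838 cells, determined with a cell viability readout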
Description: SANGER: Inhibition of human NCI-H1838 cell growth in a cell viability assay.

NCI-H226 = type: functional, cell-based, Homo sapiens; conditions: Homo sapiens, NCI-H226;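 note: cell viability read-out used to gauge growth inhibition of the cells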
Description: SANGER: Inhibition of human NCI-H226 cell growth in a cell viability assay.

NCI-H23 = type: functional, cell-based, Homo sapiens; conditions: Homo sapiens, NCI-H23;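 note: cell viability assay measuring growth inhibition of NCI-H23 cells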
Description: SANGER: Inhibition of human NCI-H23 cell growth in a cell viability assay.

NH-12 = type: functional, cell-based, Homo sapiens; conditions: Homo sapiens, NH-12;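 note: growth inhibition of NH-12 cells, read out with a cell viability assay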
Description: SANGER: Inhibition of human NH-12 cell growth in a cell viability assay.

QIMR-WIL = type: functional, cell-based, Homo sapiens; conditions: Homo sapiens, QIMR-WIL;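 note: growth inhibition of QIMR-WIL cells, read out with a cell viability assay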
Description: SANGER: Inhibition of human QIMR-WIL cell growth in a cell viability assay.

RH-1 = type: functional, cell-based, Homo sapiens; conditions: Homo sapiens, RH-1;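 note: growth inhibition of human RH-1 cells, read out with a cell viability assay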
Description: SANGER: Inhibition of human RH-1 cell growth in a cell viability assay.

SF-126 = type: functional, cell-based, Homo sapiens; conditions: Homo sapiens, SF-126;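 note: growth inhibition of human SF126 cells, read out with a cell viability assay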
Description: SANGER: Inhibition of human SF126 cell growth in a cell viability assay.

SHP77 = type: functional, cell-based, Homo sapiens, SHP-77; conditions: Homo sapiens, SHP77;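 note: growth inhibition of human SHP-77 cells measured by a cell viability assay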
Description: SANGER: Inhibition of human SHP-77 cell growth in a cell viability assay.

SJSA-1 = type: functional, cell-based, Homo sapiens; conditions: Homo sapiens, SJSA-1;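 note: growth inhibition of human SJSA-1 cells, read out through a cell viability measurement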
Description: SANGER: Inhibition of human SJSA-1 cell growth in a cell viability assay.

SK-N-DZ = type: functional, cell-based, Homo sapiens; conditions: Homo sapiens, SK-N-DZ; read-out: IC50;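 note: growth inhibition of the cancer cell line, read out through a viability assay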
Description: SANGER: Inhibition of human SK-N-DZ cell growth in a cell viability assay.

SK-PN-DW = type: functional, cell-based, Homo sapiens; conditions: Homo sapiens, SK-PN-DW;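 note: growth inhibition measured with a viability assay on these cells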
Description: SANGER: Inhibition of human SK-PN-DW cell growth in a cell viability assay.

SW684 = type: functional, cell-based, Homo sapiens; conditions: Homo sapiens, SW684; read-out: IC50;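 note: growth inhibition of human SW684 cells, measured by a cell viability assay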
Description: SANGER: Inhibition of human SW684 cell growth in a cell viability assay.

SW 962 = type: functional, cell-based, Homo sapiens; conditions: Homo sapiens, SW 962;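 note: growth inhibition of human SW962 cells, read out by a cell viability assay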
Description: SANGER: Inhibition of human SW962 cell growth in a cell viability assay.

TE-1 = type: functional, cell-based, Homo sapiens; conditions: Homo sapiens, TE-1;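 note: growth inhibition of the human TE-1 cell line, read out with a cell viability assay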
Description: SANGER: Inhibition of human TE-1 cell growth in a cell viability assay.

A101D = type: functional, cell-based, Homo sapiens; conditions: Homo sapiens, A101D;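 note: growth inhibition of the cell line, measured with a viability assay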
Description: SANGER: Inhibition of human A101D cell growth in a cell viability assay.

A253 cell line = type: functional, cell-based, Homo sapiens; conditions: Homo sapiens, A253;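 note: growth inhibition of A253 cells, read out with a cell viability assay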
Description: SANGER: Inhibition of human A253 cell growth in a cell viability assay.

ACN = type: functional, cell-based, Homo sapiens; conditions: Homo sapiens, ACN;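 note: growth inhibition of the human ACN cell line, read out via cell viability testing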
Description: SANGER: Inhibition of human ACN cell growth in a cell viability assay.

AM-38 = type: functional, cell-based, Homo sapiens; conditions: Homo sapiens, AM-38;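 note: growth inhibition of AM-38 cells of human origin, read out by a cell viability assay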
Description: SANGER: Inhibition of human AM-38 cell growth in a cell viability assay.

BE-13 = type: functional, cell-based, Homo sapiens; conditions: Homo sapiens, BE-13;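 note: growth inhibition of human BE-13 cells, measured with a cell viability assay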
Description: SANGER: Inhibition of human BE-13 cell growth in a cell viability assay.

BV-173 = type: functional, cell-based, Homo sapiens; conditions: Homo sapiens, BV-173
Description: SANGER: Inhibition of human BV-173 cell growth in a cell viability assay.

C2BBe1 = type: functional, cell-based, Homo sapiens; conditions: Homo sapiens, C2BBe1;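 note: growth inhibition of C2BBe1 cells, read out through a viability assay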
Description: SANGER: Inhibition of human C2BBe1 cell growth in a cell viability assay.

TE-5 = type: functional, cell-based, Homo sapiens; conditions: Homo sapiens, TE-5;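 note: inhibition of cell growth, read out by a cell viability assay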
Description: SANGER: Inhibition of human TE-5 cell growth in a cell viability assay.

CCRF-CEM = type: functional, cell-based, Homo sapiens; conditions: Homo sapiens, CCRF-CEM;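 note: inhibition of CCRF-CEM cell growth, measured by a cell viability assay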
Description: SANGER: Inhibition of human CCRF-CEM cell growth in a cell viability assay.

HD-MY-Z = type: functional, cell-based, Homo sapiens; conditions: Homo sapiens, HD-MY-Z;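 note: growth inhibition of HD-MY-Z cells, read out with a cell viability assay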
Description: SANGER: Inhibition of human HD-MY-Z cell growth in a cell viability assay.

Measured: IC50

O=C1NC(=O)c2c1c(-c1ccccc1Cl)cc1[nH]c3ccc(O)cc3c21
135 nM: QIMR-WIL
1160 nM: HAL-01
484 nM: KE-37
862 nM: KG-1
1530 nM: L-363
> 2000 nM: DSH1 | ES1 | ES3 | EW-18 | EOL1 | GI-1 | IA-LM | IST-MES1 | JAR | KLE | KM12 | LAMA-84 | LOX IMVI | LS-513 | Lu-65 | MFM-223 | MOLT-4 | MPP-89 | MZ7-mel | NCI-H1838 | NCI-H226 | NCI-H23 | NH-12 | RH-1 | SF-126 | SHP77 | SJSA-1 | SK-N-DZ | SK-PN-DW | SW684 | SW 962 | TE-1 | A101D | A253 cell line | ACN | AM-38 | BE-13 | C2BBe1 | TE-5 | CCRF-CEM
434 nM: BV-173
946 nM: NB13
541 nM: MLMA

CN(C)CCOc1ccc(-c2nc(-c3ccncc3)c(-c3ccc4c(c3)CC/C4=N\O)[nH]2)cc1 [SB590885]
500 nM: A101D
> 5000 nM: DSH1 | ES1 | ES3 | EW-18 | GI-1 | HD-MY-Z | IA-LM | IST-MES1 | JAR | KE-37 | KG-1 | KLE | KM12 | LAMA-84 | LS-513 | Lu-65 | MFM-223 | MLMA | MOLT-4 | MPP-89 | MZ7-mel | NB13 | NCI-H1838 | NCI-H226 | NCI-H23 | NH-12 | QIMR-WIL | RH-1 | SF-126 | SHP77 | SJSA-1 | SK-N-DZ | SK-PN-DW | SW684 | SW 962 | TE-1 | A253 cell line | AM-38 | BE-13 | TE-5 | CCRF-CEM
2930 nM: HAL-01
771 nM: BV-173
1960 nM: C2BBe1
4690 nM: L-363
180 nM: EOL1
3190 nM: LOX IMVI
1150 nM: ACN

NC1(c2ccc(-c3nc4ccn5c(=O)[nH]nc5c4cc3-c3ccccc3)cc2)CCC1 [MK-2206]
2500 nM: ES3
1240 nM: ES1
> 4000 nM: DSH1 | GI-1 | HD-MY-Z | IA-LM | IST-MES1 | JAR | KG-1 | KLE | KM12 | LAMA-84 | LOX IMVI | Lu-65 | MLMA | MPP-89 | MZ7-mel | NB13 | NCI-H226 | NCI-H23 | NH-12 | RH-1 | SF-126 | SHP77 | SJSA-1 | SK-N-DZ | SK-PN-DW | SW684 | SW 962 | TE-1 | A101D | A253 cell line | ACN | AM-38 | BE-13 | C2BBe1 | TE-5 | CCRF-CEM
1810 nM: BV-173
583 nM: KE-37
621 nM: HAL-01
2330 nM: LS-513
834 nM: L-363
806 nM: MOLT-4
3070 nM: EOL1
2420 nM: EW-18
1340 nM: MFM-223
1490 nM: QIMR-WIL
